According to US20040077687A1, “Thiazolmines and their use as tgf-beta inhibitors” (priority 2003, published 2004):

Key:
[1] = test system: TGF-β signalling (PAI-1 promoter luciferase reporter in HepG2 cells); assay: Assay 1: PAI-1 promoter firefly luciferase reporter in HepG2 cells exposed to TGF-β; details: for IC50: Homo sapiens, HepG2, read-out: IC50 value in Assay 1
Protocol: The assay was performed in HepG2 cells stably transfected with the PAI-1 promoter (known to be a strong TGF-β responsive promoter) linked to a luciferase (firefly) reporter gene. The compounds were selected on their ability to inhibit luciferase activity in cells exposed to TGF-β. In addition cells were transfected with a second luciferase (Renilla) gene which was not driven by a TGF-β responsive promoter and was used as a toxicity control.
(96 well-)microplates are seeded, using a multidrop apparatus, with the stably transfected cell line at a concentration of 35000 cells per well in 200 μl of serum-containing medium. These plates are placed in a cell incubator.
18 to 24 hours later (Day 2), cell-incubation procedure is launched. Cells are incubated with TGF-β and a candidate compound (TGF-β inhibitor) at concentrations in the range 50 nM to 10 μM (final concentration of DMSO 1%). The final concentration of TGF-β (rhTGFβ1) used in the test is 1 ng/mL. […] The final volume of the test reaction is 150 μl. Each well contains only one candidate compound and its effect on the PAI-1 promoter is monitored.
Columns 11 and 12 are employed as controls. Column 11 contains 8 wells in which the cells are incubated in the presence of TGF-β, without a candidate compound. Column 11 is used to determine the ‘reference TGF-β induced firefly luciferase value’ against which values measured in the test wells (to quantify inhibitory activity) may be compared. In wells A12 to D12, cells are grown in medium without TGF-β. The firefly luciferase values obtained from these positions are representive of the ‘basal firefly luciferase activity’. In wells E12 to H12, cells are incubated in the presence of TGF-β and 500 μM CPO (Cyclopentenone, Sigma), a cell toxic compound.
12 to 18 hours later (day 3), the luciferase quantification procedure is launched. The following reactions are performed using reagents obtained from a Dual Luciferase Assay Kit (Promega). Cells are washed and lysed with the addition of 10 μl of passive lysis buffer (Promega). Following agitation (15 to 30 mins), luciferase activities of the plates are read in a dual-injector luminometer (BMG lumistar). For this purpose, 50 μl of luciferase assay reagent and 50 μl of ‘Stop & Glo’ buffer are injected sequentially to quantify the activities of both luciferases. The mean Luciferase activity value obtained in wells A11 to H11 (Column 11, TGF-βonly) is considered to represent 100% and values obtained in wells A12 to D12 (cells in medium alone) give a basal level (0%). For each of the compounds tested, a concentration response curve is constructed from which an IC50 value can be determined graphically.

melting point [°C] | IC50 [1] [µM] | SMILES | firefly and renilla luciferase activities relative to column 11 (TGF-β only); toxicity control ([1]; 500 μM CPO in the presence of TGF-β, HepG2 reporter cells)
– | – | O=C1C=CCC1 [CPO, Cyclopentenone, reference compound] | around 50%
256 to 257 | ≤ 5 | Nc1nc(-c2ccccn2)c(-c2ccnc(-c3ccc(Cl)cc3)c2)s1 [Example 1, 5-[2-(4-Chlorophenyl)pyridin-4-yl]-4-pyridin-2-yl-1,3-thiazol-2-amine] | –
222 | ≤ 5 | COc1ccc(-c2cc(-c3sc(N)nc3-c3ccccn3)ccn2)cc1 [Example 2, 5-[2-(4-Methoxyphenyl)pyridin-4-yl]-4-pyridin-2-yl-1,3-thiazol-2-amine] | –
250 | ≤ 5 | Nc1nc(-c2ccccn2)c(-c2ccnc(-c3ccc(F)cc3)c2)s1 [Example 3, 5-[2-(4-Fluorophenyl)pyridin-4-yl]-4-pyridin-2-yl-1,3-thiazol-2-amine] | –
238 | ≤ 5 | CCc1ccc(-c2cc(-c3sc(N)nc3-c3ccccn3)ccn2)cc1 [Example 4, 5-[2-(4-Ethylphenyl)pyridin-4-yl]-4-pyridin-2-yl-1,3-thiazol-2-amine] | –
246 | ≤ 5 | CCOc1ccc(-c2cc(-c3sc(N)nc3-c3ccccn3)ccn2)cc1 [Example 5, 5-[2-(4-Ethoxyphenyl)pyridin-4-yl]-4-pyridin-2-yl-1,3-thiazol-2-amine] | –
244 | ≤ 5 | Nc1nc(-c2ccccn2)c(-c2ccnc(-c3ccsc3)c2)s1 [Example 6, 5-[2-(Thiophen-3-yl)pyridin-4-yl]-4-pyridin-2-yl-1,3-thiazol-2-amine] | –
